The target in the first test is human NAMPT enzyme (His-hNAMPT) (Homo sapiens (Human), UniProt P43490). Nature of the test: NAMPT enzymatic inhibition assay (fluorescence, NADH product). The test is classed as biochemical. The settings on record: [BPS]; read-out: NAMPT IC50 (μM) [BPS].
Sequence of human NAMPT enzyme (His-hNAMPT) (P43490 whole entry): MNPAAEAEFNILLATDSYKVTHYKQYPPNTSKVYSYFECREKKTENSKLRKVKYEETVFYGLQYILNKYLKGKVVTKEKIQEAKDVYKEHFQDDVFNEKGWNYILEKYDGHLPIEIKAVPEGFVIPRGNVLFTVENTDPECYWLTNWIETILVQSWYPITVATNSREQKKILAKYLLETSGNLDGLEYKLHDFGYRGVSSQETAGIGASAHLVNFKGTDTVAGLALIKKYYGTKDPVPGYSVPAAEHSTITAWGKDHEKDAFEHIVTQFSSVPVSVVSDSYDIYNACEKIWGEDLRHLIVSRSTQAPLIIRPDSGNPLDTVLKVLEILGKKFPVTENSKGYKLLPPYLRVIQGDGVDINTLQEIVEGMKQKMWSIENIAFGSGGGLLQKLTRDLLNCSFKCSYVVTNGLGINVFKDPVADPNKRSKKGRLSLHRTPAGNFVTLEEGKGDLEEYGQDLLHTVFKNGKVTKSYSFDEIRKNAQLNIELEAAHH
Regarding `N#CN=C(NCC[C@@H]1[C@H]2CN(C(=O)c3ccccc3)C[C@@H]12)Nc1ccncc1` [Example 228, (E)-1-(2-((1R,5S,6s)-3-benzoyl-3-azabicyclo[3.1.0]hexan-6-yl)ethyl)-2-cyano-3-(pyridin-4-yl)guanidine], the IC50 (in general, the concentration that inhibits the measured activity by half) lay in the range of 0.01 to 0.49 µM.
The same measure, in the same setting: in the case of `CC1(OC(=O)N2C[C@@H]3[C@@H](CCN/C(=N\C#N)Nc4ccncc4)[C@@H]3C2)COC1` [Example 229, (1R,5S,6s)-3-methyloxetan-3-yl 6-(2-((E)-2-cyano-3-(pyridin-4-yl)guanidino)ethyl)-3-azabicyclo[3.1.0]hexane-3-carboxylate] it was 0.01 to 0.49 µM; in that of `CC1(OC(=O)N2C[C@@H]3[C@@H](CCNC(=O)N4Cc5ccccc5C4)[C@@H]3C2)COC1` [Example 230, (1R,5S,6s)-3-methyloxetan-3-yl 6-(2-(isoindoline-2-carboxamido)ethyl)-3-azabicyclo[3.1.0]hexane-3-carboxylate], 0.01 to 0.49 µM; in that of `CC(C)(C)OC(=O)N1C[C@@H]2[C@@H](CNC(=O)c3cc(-c4cccnc4)on3)[C@@H]2C1` [Example 231, (1R,5S,6s)-tert-butyl 6-((5-(pyridin-3-yl)isoxazole-3-carboxamido)methyl)-3-azabicyclo[3.1.0]hexane-3-carboxylate], 1 to 29 µM.
For `CC(C)(C)OC(=O)N1C[C@@H]2[C@@H](CNC(=O)/C=C/c3cccnc3)[C@@H]2C1` [Example 232, (1R,5S,6s)-tert-butyl 6-(((E)-3-(pyridin-3-yl)acrylamido)methyl)-3-azabicyclo[3.1.0]hexane-3-carboxylate], the IC50 lay within 0.01 to 0.49 µM.
Regarding `CC(C)(C)OC(=O)N1C[C@@H]2[C@@H](CNC(=O)COc3cccnc3)[C@@H]2C1` [Example 233, (1R,5S,6s)-tert-butyl 6-((2-(pyridin-3-yloxy)acetamido)methyl)-3-azabicyclo[3.1.0]hexane-3-carboxylate], the IC50 is more than 30 µM.
Still for that read-out and setting: under `CC(C)(C)OC(=O)N1C[C@@H]2[C@@H](CNC(=O)/C=C/c3ccc(N)nc3)[C@@H]2C1` [Example 234, (1R,5S,6s)-tert-butyl 6-(((E)-3-(6-aminopyridin-3-yl)acrylamido)methyl)-3-azabicyclo[3.1.0]hexane-3-carboxylate] stands 1 to 29 µM; under `CC(C)(C)OC(=O)N1C[C@@H]2[C@@H](CNC(=O)c3cc4ccncc4o3)[C@@H]2C1` [Example 235, (1R,5S,6s)-tert-butyl 6-((furo[2,3-c]pyridine-2-carboxamido)methyl)-3-azabicyclo[3.1.0]hexane-3-carboxylate], 1 to 29 µM; under `CC(C)(C)OC(=O)N1C[C@@H]2[C@@H](CNC(=O)c3cc4ccncc4s3)[C@@H]2C1` [Example 236, (1R,5S,6s)-tert-butyl 6-((thieno[2,3-c]pyridine-2-carboxamido)methyl)-3-azabicyclo[3.1.0]hexane-3-carboxylate], more than 30 µM.
Still for that read-out and setting: under `O=C(/C=C/c1cccnc1)NC[C@@H]1[C@H]2CN(C(=O)c3ccccc3)C[C@@H]12` [Example 237, (E)-N-(((1R,5S,6s)-3-benzoyl-3-azabicyclo[3.1.0]hexan-6-yl)methyl)-3-(pyridin-3-yl)acrylamide] stands 0.5 to 0.99 µM.
Turning to `CC1(OC(=O)N2C[C@@H]3[C@@H](CNC(=O)/C=C/c4cccnc4)[C@@H]3C2)COC1` [Example 238, (1R,5S,6s)-3-methyloxetan-3-yl 6-(((E)-3-(pyridin-3-yl)acrylamido)methyl)-3-azabicyclo[3.1.0]hexane-3-carboxylate], the IC50 fell in the range of 1 to 29 µM.
As for `CC1(OC(=O)N2C[C@@H]3[C@@H](CNC(=O)/C=C/c4ccc(N)nc4)[C@@H]3C2)COC1` [Example 239, (1R,5S,6s)-3-methyloxetan-3-yl 6-(((E)-3-(6-aminopyridin-3-yl)acrylamido)methyl)-3-azabicyclo[3.1.0]hexane-3-carboxylate], the IC50 fell in the range of 1 to 29 µM.
The same measure, in the same setting: under `Nc1ccc(/C=C/C(=O)NC[C@@H]2[C@H]3CN(C(=O)c4ccccc4)C[C@@H]23)cn1` [Example 240, (E)-3-(6-aminopyridin-3-yl)-N-(((1R,5S,6s)-3-benzoyl-3-azabicyclo[3.1.0]hexan-6-yl)methyl)acrylamide] stands 1 to 29 µM.
Same read-out and setting: under `CC(C)(C)OC(=O)N1C[C@@H]2[C@H](C1)[C@H]2CC1(NC(=O)/C=C/c2ccc(N)nc2)CC1` [Example 241, (1R,5S,6s)-tert-butyl 6-((1-((E)-3-(6-aminopyridin-3-yl)acrylamido)cyclopropyl)methyl)-3-azabicyclo[3.1.0]hexane-3-carboxylate] stands 1 to 29 µM.
On the same count and under the same terms, under `CC(C)(C)OC(=O)N1C[C@@H]2[C@H](C1)[C@H]2CC1(NC(=O)/C=C/c2cccnc2)CC1` [Example 242, (1R,5S,6s)-tert-butyl 6-((1-((E)-3-(pyridin-3-yl)acrylamido)cyclopropyl)methyl)-3-azabicyclo[3.1.0]hexane-3-carboxylate] stands more than 30 µM; under `CC(C)(C)OC(=O)N1C[C@@H]2[C@H](C1)[C@H]2C(O)CNC(=O)/C=C/c1ccc(N)nc1` (stereo partly drawn) [Example 252, (1R,5S,6r)-tert-butyl 6-(2-((E)-3-(6-aminopyridin-3-yl)acrylamido)-1-hydroxyethyl)-3-azabicyclo[3.1.0]hexane-3-carboxylate], 1 to 29 µM.
Consider `CC(C)(C)OC(=O)N1C[C@@H]2[C@H](C1)[C@H]2C(O)CNC(=O)/C=C/c1cccnc1` (stereo partly drawn) [Example 253, (1R,5S,6r)-tert-butyl 6-(1-hydroxy-2-((E)-3-(pyridin-3-yl)acrylamido)ethyl)-3-azabicyclo[3.1.0]hexane-3-carboxylate], for which the IC50 lay in the range of 0.01 to 0.49 µM.
On the same count and under the same terms, in the case of `CC(C)(C)OC(=O)N1C[C@@H]2[C@H](C1)[C@H]2C(F)CNC(=O)/C=C/c1ccc(N)nc1` (stereo partly drawn) [Example 254, (1R,5S,6r)-tert-butyl 6-(2-((E)-3-(6-aminopyridin-3-yl)acrylamido)-1-fluoroethyl)-3-azabicyclo[3.1.0]hexane-3-carboxylate] it was 0.01 to 0.49 µM.
On the same count and under the same terms, under `CC(C)(C)OC(=O)N1C[C@@H]2[C@H](C1)[C@H]2C(F)CNC(=O)/C=C/c1cccnc1` (stereo partly drawn) [Example 255, (1R,5S,6r)-tert-butyl 6-(1-fluoro-2-((E)-3-(pyridin-3-yl)acrylamido)ethyl)-3-azabicyclo[3.1.0]hexane-3-carboxylate] stands 0.01 to 0.49 µM; under `CC(C)(C)OC(=O)N1C[C@H]2C[C@@H](CNC(=O)N3Cc4ccncc4C3)C[C@H]2C1` [Example 267, tert-butyl (3aR,5r,6aS)-5-((2,3-dihydro-1H-pyrrolo[3,4-c]pyridine-2-carboxamido)methyl)hexahydrocyclopenta[c]pyrrole-2(1H)-carboxylate], 0.01 to 0.49 µM.

The test is the same for the next values; noted with them: [HDB]; read-out: NAMPT IC50 (μM) [HDB].
`O=C(NCC[C@@H]1[C@H]2CN(c3nc(Cl)ncc3F)C[C@@H]12)N1Cc2ccncc2C1` [Example 226, N-(2-((1R,5S,6s)-3-(2-chloro-5-fluoropyrimidin-4-yl)-3-azabicyclo[3.1.0]hexan-6-yl)ethyl)-1H-pyrrolo[3,4-c]pyridine-2(3H)-carboxamide]: the IC50 was in the range of 0.01 to 0.49 µM.
Consider `O=C(NCC[C@@H]1[C@H]2CN(c3nc(Cl)ncc3F)C[C@@H]12)N1Cc2cccnc2C1` [Example 227, N-(2-((1R,5S,6s)-3-(2-chloro-5-fluoropyrimidin-4-yl)-3-azabicyclo[3.1.0]hexan-6-yl)ethyl)-5H-pyrrolo[3,4-b]pyridine-6(7H)-carboxamide], for which the IC50 was in the range of 0.01 to 0.49 µM.
Same read-out and setting: in the case of `CC(C)(C)OC(=O)N1C[C@@H]2[C@@H](CNC(=O)COc3cccnc3)[C@@H]2C1` [Example 233, (1R,5S,6s)-tert-butyl 6-((2-(pyridin-3-yloxy)acetamido)methyl)-3-azabicyclo[3.1.0]hexane-3-carboxylate] it was 1 to 29 µM; in that of `O=C(/C=C/c1cccnc1)NCC[C@@H]1[C@H]2CN(Cc3ccccc3)C[C@@H]12` [Example 243, (E)-N-(2-((1R,5S,6s)-3-benzyl-3-azabicyclo[3.1.0]hexan-6-yl)ethyl)-3-(pyridin-3-yl)acrylamide], 0.01 to 0.49 µM; in that of `O=C(/C=C/c1cccnc1)NCC[C@@H]1[C@H]2CN(Cc3ccc(C(F)(F)F)cc3)C[C@@H]12` [Example 244, (E)-3-(pyridin-3-yl)-N-(2-((1R,5S,6s)-3-(4-(trifluoromethyl)benzyl)-3-azabicyclo[3.1.0]hexan-6-yl)ethyl)acrylamide], 0.01 to 0.49 µM.
Same read-out and setting: under `CC(C)N1C[C@@H]2[C@@H](CCNC(=O)/C=C/c3cccnc3)[C@@H]2C1` [Example 245, (E)-N-(2-((1R,5S,6s)-3-isopropyl-3-azabicyclo[3.1.0]hexan-6-yl)ethyl)-3-(pyridin-3-yl)acrylamide] stands 1 to 29 µM; under `O=C(/C=C/c1cccnc1)NCC[C@@H]1[C@H]2CN(CC3CCOCC3)C[C@@H]12` [Example 246, (E)-3-(pyridin-3-yl)-N-(2-((1R,5S,6s)-3-((tetrahydro-2H-pyran-4-yl)methyl)-3-azabicyclo[3.1.0]hexan-6-yl)ethyl)acrylamide], 0.5 to 0.99 µM; under `O=C(/C=C/c1cccnc1)NCC[C@@H]1[C@H]2CN(Cc3ccc(F)cc3)C[C@@H]12` [Example 247, (E)-N-(2-((1R,5S,6s)-3-(4-fluorobenzyl)-3-azabicyclo[3.1.0]hexan-6-yl)ethyl)-3-(pyridin-3-yl)acrylamide], 0.01 to 0.49 µM.
The same measure, in the same setting: in the case of `O=C(/C=C/c1cccnc1)NCC[C@@H]1[C@H]2CN(Cc3ccc(F)cc3F)C[C@@H]12` [Example 248, (E)-N-(2-((1R,5S,6s)-3-(2,4-difluorobenzyl)-3-azabicyclo[3.1.0]hexan-6-yl)ethyl)-3-(pyridin-3-yl)acrylamide] it was 0.01 to 0.49 µM.
On to `CC(c1ccccc1)N1C[C@@H]2[C@@H](CCNC(=O)/C=C/c3cccnc3)[C@@H]2C1` (stereo partly drawn) [Example 249, (E)-N-(2-((1R,5S,6s)-3-(1-phenylethyl)-3-azabicyclo[3.1.0]hexan-6-yl)ethyl)-3-(pyridin-3-yl)acrylamide], for which the 50% inhibitory concentration (IC50) fell in the range of 0.01 to 0.49 µM.
Still for that read-out and setting: in the case of `O=C(/C=C/c1cccnc1)NCC[C@@H]1[C@H]2CN(CCc3ccc(F)cc3)C[C@@H]12` [Example 250, (E)-N-(2-((1R,5S,6s)-3-(4-fluorophenethyl)-3-azabicyclo[3.1.0]hexan-6-yl)ethyl)-3-(pyridin-3-yl)acrylamide] it was 0.01 to 0.49 µM.
The same measure, in the same setting: under `O=C(/C=C/c1cccnc1)NCC[C@@H]1[C@H]2CN(Cc3cc(Cl)cc(Cl)c3)C[C@@H]12` [Example 251, (E)-N-(2-((1R,5S,6s)-3-(3,5-dichlorobenzyl)-3-azabicyclo[3.1.0]hexan-6-yl)ethyl)-3-(pyridin-3-yl)acrylamide] stands 0.01 to 0.49 µM.
